Measured values as given in patent US12116362B2, “Monocyclic compounds useful as GPR120 modulators” (Valo Health, Inc., priority 2016, dated 2024).

Legend:
human GPR120 [1] = target: T1, human GPR120 (Homo sapiens, UniProt Q5NUL3); test: GPR120 β-Arrestin Recruitment Assay (PathHunter, CHO-K1 cells); assay type: cell-based; conditions: for EC50: pEC50=−log(EC50) from curve fit, CHO-K1 cells, 90 min incubation, read-out: β-Arr pEC50 (converted); for activation at 10 µM: CHO-K1, read-out: percent activation at a single concentration (printed in the β-Arr pEC50 column)
T1 construct: host or cells: CHO-K1
Text: This in vitro assay tests compounds' ability to activate intracellular signaling via 3-Arrestin recruitment to heterologously expressed human GPR120. This functional cellular assay utilizes enzyme fragment complementation with β-galactosidlase (β-gal) as a functional reporter (DiscoveRx PathlHunter® β-Arrestin assay platform). The human (GPR120 receptor (GenBank accession Number NM_181745) was fused in frame with the small enzyme fragment ProLink™ and co-expressed in CHO-K1 cells with a fusion protein of β-Arrestin 2 and the larger, N-terminal deletion mutant of β-gal. Activation by a GPR120 agonist stimulates binding of β-arrestin to the ProLink-tagged GPCR and forces complementation of the two enzyme fragments, resulting in the formation of an active β-gal enzyme. This interaction leads to an increase in enzyme activity that can be measured using chemiluminescent PathHunter® Detection Reagents.
One day prior to the assay, cells were seeded in a total volume of 20 μl of growth medium into white walled 384-well microplates and incubated at 37° C./5% CO2 overnight. On the day of the assay, growth medium was removed and 20 μl assay buffer (HBSS+10 mM HEPES+0.1% heat-inactivated BSA) were added to each well.
Test compounds were dissolved in 100% DMSO to a concentration of 10 mM to provide stock solutions. Serial dilutions were performed from stock solutions into assay buffer to obtain intermediate concentrations of 5-fold higher than the concentrations to be tested. 5 μl of the 5× compound solutions were added to the cells and the assay plates were incubated at 37° C. for 90 minutes. The final concentration of compounds tested in the assay ranged from 1.5 nM to 100 μM. Following incubation, 12.5 μl of PathHunter® detection reagent were added to each well, and plates were incubated at room temperature for 60 minutes. Chemiluminescence was read using an EnVision plate reader (PerkinElmer), raw data were expressed as relative light units (RLU).
(§1) To determine agonist potencies (EC50 values), non-linear least-squares curve fits of the raw data (RLU) were performed in the GraphPad Prism software package, using the 4-parameter model with variable Hill Slope:
Reported below in Table 1 are pEC50 values (pEC50=−log(EC50) from curve fit) for compounds of Formula I in this assay, β-Arr pEC50 Alternatively, percent activation at a single concentration is reported.
T1 sequence (Q5NUL3 1-377 isoform Q5NUL3-1): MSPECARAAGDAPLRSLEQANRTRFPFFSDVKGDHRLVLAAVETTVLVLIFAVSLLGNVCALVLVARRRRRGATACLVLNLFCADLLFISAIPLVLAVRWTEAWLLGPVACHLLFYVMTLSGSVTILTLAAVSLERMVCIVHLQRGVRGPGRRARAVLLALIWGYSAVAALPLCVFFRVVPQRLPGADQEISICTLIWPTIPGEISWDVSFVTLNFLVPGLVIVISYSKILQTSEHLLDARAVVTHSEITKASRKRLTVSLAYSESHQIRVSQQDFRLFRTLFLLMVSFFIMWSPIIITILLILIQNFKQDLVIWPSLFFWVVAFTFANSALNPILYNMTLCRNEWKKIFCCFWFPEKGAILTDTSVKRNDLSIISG
T1 sequence (P32121 whole entry partner): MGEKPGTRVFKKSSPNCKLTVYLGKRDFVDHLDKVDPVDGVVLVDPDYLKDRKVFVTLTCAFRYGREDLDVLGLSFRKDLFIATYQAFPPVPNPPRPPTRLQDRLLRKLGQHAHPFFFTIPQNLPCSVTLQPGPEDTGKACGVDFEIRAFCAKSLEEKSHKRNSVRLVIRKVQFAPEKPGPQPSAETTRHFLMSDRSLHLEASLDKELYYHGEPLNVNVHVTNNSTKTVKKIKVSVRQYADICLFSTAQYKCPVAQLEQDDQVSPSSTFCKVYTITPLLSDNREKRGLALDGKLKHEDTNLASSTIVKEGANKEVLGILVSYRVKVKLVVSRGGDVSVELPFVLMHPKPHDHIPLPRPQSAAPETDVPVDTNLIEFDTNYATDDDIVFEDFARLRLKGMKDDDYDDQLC

human GPR120 [2] = target: T2, human GPR120 (Homo sapiens, UniProt Q5NUL3); test: Human GPR120 Calcium-Release Assay (aequorin luminescence, CHO-K1 cells); assay type: cell-based; conditions: pEC50=−log(EC50) from curve fit; short variant of human GPR120 in CHO-K1 with Gα16 and apoaequorin; read-out: Ca2+ pEC50 (converted)
T2 construct: expressed in transfected cells; host or cells: CHO-K1 coexpressing Gα16 and mitochondrial apoaequorin
T2 sequence (Q5NUL3 1-361): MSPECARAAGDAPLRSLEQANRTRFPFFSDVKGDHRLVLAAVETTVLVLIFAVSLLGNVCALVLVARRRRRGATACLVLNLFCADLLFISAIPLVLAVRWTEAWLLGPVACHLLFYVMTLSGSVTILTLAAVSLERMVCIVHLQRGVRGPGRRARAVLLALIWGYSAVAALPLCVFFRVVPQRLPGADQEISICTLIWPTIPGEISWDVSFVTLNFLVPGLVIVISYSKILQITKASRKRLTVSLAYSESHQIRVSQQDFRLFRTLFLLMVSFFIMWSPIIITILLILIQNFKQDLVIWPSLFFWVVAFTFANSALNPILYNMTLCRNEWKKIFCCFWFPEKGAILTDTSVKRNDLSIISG
Text: This in vitro assay tests compounds' ability to activate heterologously expressed human GPR120 via G-protein coupling leading to generation of inositol 1,4,5-triphosphate and mobilization of intracellular calcium. This functional cellular assay is based on the luminescence of mitochondrial aequorin following intracellular Ca^2+ release. Aequorin is a photoprotein isolated from the jellyfish Aequorea victoria. The active protein is formed in the presence of molecular oxygen from apoaequorin and its cofactor coelenterazine. Binding of Ca^2+ to the active protein induces a conformational change, resulting in oxidation of coelenterazine and subsequent blue luminescence.
The short variant of the human GPR120 receptor (GenBank accession Number AAI01176) was stably expressed in a CHO-K1 cell line coexpressing Gα16 and mitochondrial apoaequorin.
Cells were grown to mid-log phase in culture media without antibiotics, were detached with PBS/EDTA, centrifuged and resuspended in assay buffer (DMEM-F12 medium with 15 mM HEPES pH 7.0 and 0.1% protease free BSA) at a concentration of 10^6 cells/mL. Cells were incubated at room temperature for at least 4 hours with 5 μM coelenterazine h.
Test compounds were dissolved in 100% DMSO to a concentration of 20 mM to provide stock solutions. Serial dilutions were performed from stock solutions in 100% DMSO to obtain intermediate concentrations 200-fold higher than the concentrations to be tested. Each sample was diluted 100-fold into assay buffer. 50 μl of these compound solutions were dispensed into each well of 96-well assay plates. The final concentration of compounds tested in the assay ranged from 5 nM to 100 μM. α-Linolenic acid was used as a reference compound. Each test was performed in duplicate.
To start the assay, 50 μl of cell suspension were added to each well of the assay plate. The resulting luminescence was recorded using a Hamamatsu Functional Drug Screening System 6000 (FDSS 6000), and raw data were expressed as relative light units (RLU).
as §1
Reported below in Table 1 are pEC50 values (pEC50=−log(EC50) from curve fit) for representative compounds of Formula I in this assay, Ca2+pEC50.

| Compound | EC50 (human GPR120 [1]) [µM] | EC50 (human GPR120 [2]) [µM] | activation at 10 µM (human GPR120 [1]) [%] |
| --- | --- | --- | --- |
| CNC(=O)c1cc(N2Cc3ccccc3S2(=O)=O)nc(Oc2ccc(Cl)cc2)n1 [Compound 89] | 2.51 | 20 | – |
| O=S1(=O)c2ccccc2CN1c1ccnc(OCc2ccccn2)n1 [Compound 72] | > 10 | > 100 | – |
| O=S1(=O)c2ccccc2CN1c1ccnc(Oc2ccc(OC(F)(F)F)cc2Cl)n1 [Compound 36] | 0.631 | 7.94 | – |
| COc1cc(N2Cc3ccccc3S2(=O)=O)nc(Oc2ccc(F)cc2)n1 [Compound 99] | 0.501 | 0.158 | – |
| O=S1(=O)c2ccccc2CN1c1ccnc(Oc2ccccc2Cl)n1 [Compound 20] | 6.31 | 3.98 | – |
| O=S1(=O)c2ccccc2CN1c1ccnc(Oc2ccc(Cl)c(Cl)c2)n1 [Compound 33] | – | > 100 | – |
| O=S1(=O)c2ccccc2CN1c1ccnc(OC2CCCC2)n1 [Compound 60] | 1.58 | 0.501 | – |
| COc1cc(Oc2ccc(F)cc2)nc(N2Cc3ccccc3S2(=O)=O)n1 [Compound 101] | 0.398 | > 0.1 | – |
| Cc1cc(N2Cc3ccccc3S2(=O)=O)nc(Oc2ccc(F)cc2)n1 [Compound 106] | 1 | 0.2 | – |
| CN1CCC(Oc2nccc(N3Cc4ccccc4S3(=O)=O)n2)C1 (stereo not drawn) [Compound 63] | 0.501 | > 100 | – |
| O=S1(=O)c2ccccc2CN1c1cccc(Oc2cccc(Cl)c2)n1 [Compound 123] | > 31.6 | > 100 | – |
| O=S1(=O)c2ccccc2CN1c1ccnc(Oc2ccccc2F)n1 [Compound 56] | > 10 | 0.794 | – |
| O=S1(=O)c2ccccc2CN1c1ccnc(Oc2cncc(Cl)c2)n1 [Compound 51] | – | 1 | – |
| O=S1(=O)c2ccccc2CN1c1ccnc(Oc2ccc(Cl)cc2)n1 [Compound 21] | > 7.94 | 0.501 | – |
| O=S1(=O)c2ccccc2CN1c1ccnc(Oc2cccc(F)c2)n1 [Compound 37] | 1 | 0.2 | – |
| O=S1(=O)c2ccccc2CN1c1cncc(Oc2cccnc2)n1 [Compound 142] | 39.8 | 1.26 | – |
| O=S1(=O)c2ccccc2CN1c1ccnc(OC2CCC2)n1 [Compound 58] | 2.51 | 0.631 | – |
| CCc1cc(N2Cc3ccccc3S2(=O)=O)nc(Oc2cccnc2)n1 [Compound 82] | 2.51 | 1.26 | – |
| O=S1(=O)c2ccccc2CN1c1cccc(Oc2cccnc2)n1 [Compound 121] | 1.58 | 0.2 | – |
| Cc1cncc(Oc2nccc(N3Cc4ccccc4S3(=O)=O)n2)c1 [Compound 19] | 5.01 | 0.794 | – |
| CN1CC(Oc2nccc(N3Cc4ccccc4S3(=O)=O)n2)C1 [Compound 61] | > 31.6 | > 100 | – |
| COc1cc(Oc2cccnc2)nc(N2Cc3ccccc3S2(=O)=O)n1 [Compound 80] | 0.501 | 2.51 | – |
| Cc1cc(N2Cc3ccccc3S2(=O)=O)nc(Oc2ccc(Cl)cc2)n1 [Compound 86] | 0.251 | 0.398 | – |
| O=C1c2ccccc2CN1c1cccc(Oc2cccnc2)n1 [Compound 122] | > 10 | 0.501 | – |
| O=S1(=O)c2ccccc2CN1c1ccnc(Oc2cccnc2)n1 [Compound 1] | – | 7.94 | – |
| O=S1(=O)c2ccccc2CN1c1ccnc(Oc2cccc(Cl)c2)n1 [Compound 22] | 1.58 | > 100 | – |

| Compound | EC50 (human GPR120 [1]) [µM] | EC50 (human GPR120 [2]) [µM] | activation at 10 µM (human GPR120 [1]) [%] |
| --- | --- | --- | --- |
| COc1cncc(Oc2nccc(N3Cc4ccccc4S3(=O)=O)n2)c1 [Compound 50] | 5.01 | 6.31 | – |
| O=S1(=O)c2ccccc2CN1c1cc(C2CC2)nc(Oc2cccnc2)n1 [Compound 83] | 2.51 | 0.794 | – |
| COc1cc(N2Cc3ccccc3S2(=O)=O)nc(Oc2cccnc2)n1 [Compound 79] | 1.58 | 0.501 | – |
| O=S1(=O)c2ccccc2CN1c1ccnc(OC2CCCCC2)n1 [Compound 59] | 6.31 | 12.6 | – |
| COc1cc(N2Cc3ccccc3S2(=O)=O)nc(OC2CC(F)(F)C2)n1 [Compound 93] | – | 0.631 | – |
| Cc1cc(Oc2nccc(N3Cc4ccccc4S3(=O)=O)n2)ccc1Cl [Compound 35] | 1.58 | > 100 | – |
| Cc1cc(OC2CCC2)nc(N2Cc3ccccc3S2(=O)=O)c1 [Compound 128] | 0.0398 | 0.0794 | – |
| COc1cc(Oc2ccc(Cl)cc2)nc(N2Cc3ccccc3S2(=O)=O)n1 [Compound 96] | 1 | > 10 | – |
| O=S1(=O)c2ccccc2CN1c1ccnc(Oc2ccccc2)n1 [Compound 16] | 6.31 | 1.26 | – |
| COc1ccc(Oc2nccc(N3Cc4ccccc4S3(=O)=O)n2)cc1 [Compound 44] | > 10 | 1.58 | – |
| O=S1(=O)c2ccccc2CN1c1ccnc(Oc2cncc3ccccc23)n1 [Compound 32] | 25.1 | – | – |
| Cc1cc(N2Cc3ccccc3S2(=O)=O)nc(Oc2ccccc2)n1 [Compound 107] | 0.794 | – | – |
| CNC(=O)c1cc(Oc2ccc(Cl)cc2)nc(N2Cc3ccccc3S2(=O)=O)c1 [Compound 137] | 2.51 | – | – |
| COc1ccc2c(c1)S(=O)(=O)N(c1nccc(Oc3cccnc3)n1)C2 [Compound 90] | 12.6 | – | – |
| NC(=O)COc1nccc(N2Cc3ccccc3S2(=O)=O)n1 [Compound 75] | > 31.6 | – | – |
| O=S1(=O)c2cc(Cl)ccc2CN1c1ccnc(Oc2cccnc2)n1 [Compound 4] | > 31.6 | – | – |
| O=S1(=O)c2ccccc2CN1c1ccnc(Oc2ccc(-n3cncn3)cc2)n1 [Compound 48] | > 10 | – | – |
| Cc1cccc2c1CN(c1nccc(Oc3cccnc3)n1)C2 [Compound 118] | 1 | – | – |
| CN1CCN(c2cc(N3Cc4ccccc4S3(=O)=O)nc(Oc3cccnc3)n2)CC1 [Compound 108] | > 31.6 | – | – |
| CN(C)c1cccc(Oc2nccc(N3Cc4ccccc4S3(=O)=O)n2)c1 [Compound 23] | 3.16 | – | – |
| c1cncc(Oc2nccc(N3Cc4ccccc4C3)n2)c1 [Compound 13] | – | – | 9 |
| CC(=O)N1CCC(Oc2nccc(N3Cc4ccccc4S3(=O)=O)n2)CC1 [Compound 111] | > 10 | – | – |
| O=S1(=O)c2ccccc2CN1c1ccnc(Oc2ccncc2)n1 [Compound 15] | – | – | 3 |
| COc1cc(N2Cc3ccccc3S2(=O)=O)nc(Oc2ccccc2)n1 [Compound 100] | 0.158 | – | – |
| O=S1(=O)c2ccccc2CN1c1cccc(Oc2ccccc2Cl)n1 [Compound 124] | > 31.6 | – | – |
| COc1ccc2c(c1)CN(c1nccc(Oc3cccnc3)n1)S2(=O)=O [Compound 116] | 39.8 | – | – |
